Reference: PMC6222614, “Disubstituted 4-Chloro-3-nitrophenylthiourea Derivatives: Antimicrobial and Cytotoxic Studies” (Molecules : A Journal of Synthetic Chemistry and Natural …, 2018)
Converted amounts (≈) assume the structure as drawn.

Legend:
[1] = test system: S. epidermidis MRSE 409/11; test: MIC, hospital methicillin-resistant strain; type: cell-based; conditions: Staphylococcus epidermidis
Experimental: (§1) The antimicrobial activity of the compounds was tested on Gram-positive bacteria (Staphylococcus aureus NCTC 4163, Staphylococcus aureus ATCC 25923, Staphylococcus aureus ATCC 6538, Staphylococcus aureus ATCC 29213, Staphylococcus epidermidis ATCC 12228, Staphylococcus epidermidis ATCC 35984, Enterococcus faecalis ATCC 29212, Bacillus subtilis ATCC 6633, Bacillus cereus ATCC 11778, Micrococcus luteus ATCC 9341, Micrococcus luteus ATCC 10240); Gram-negative rods (Escherichia coli ATCC 10538, Escherichia coli ATCC 25922, Escherichia coli NCTC 8196, Proteus vulgaris NCTC 4635, Pseudomonas aeruginosa ATCC 15442, Pseudomonas aeruginosa NCTC 6749, Pseudomonas aeruginosa ATCC 27863, Bordetella bronchiseptica ATCC 4617) and yeasts (Candida albicans ATCC 10231, Candida albicans ATCC 90028, Candida parapsilosis ATCC 22019). Other microorganisms used were obtained from the collection of the Department of Pharmaceutical Microbiology, Medical University of Warsaw, Poland.
(§2) Antibacterial activity was examined by the disc-diffusion method under standard conditions using Mueller-Hinton II agar medium (Becton Dickinson) according to CLSI (previously NCCLS) guidelines. Antifungal activities were assessed using Mueller-Hinton agar + 2% glucose and 0.5 µg/mL Methylene Blue Dye Medium. Sterile filter paper discs (9 mm diameter, Whatman No 3 chromatography paper) were dripped with tested compound solutions (in DMSO) to load 400 μg of a given compound per disc. Dry discs were placed on the surface of appropriate agar medium. The results (diameter of the growth inhibition zone) were read after 18 h of incubation at 35 °C. Minimal Inhibitory Concentration (MIC) was tested by the twofold serial microdilution method (in 96-well microtiter plates) using Mueller-Hinton Broth medium (Beckton Dickinson) for bacteria or RPMI-1640 medium for Candida species according to CLSI guidelines. The stock solution of tested agent was prepared in DMSO and diluted in sterile water. Concentrations of tested agents ranged from 0.125 to 512 µg/mL. The final inoculum of all studied microorganisms was 10^5 CFU/ mL^−1 (colony forming units per mL). Minimal inhibitory concentrations (the lowest concentration of a tested agent that prevents visible growth of a microorganism) were read after 18 h (bacteria) or 24 h (yeasts) of incubation at 35 °C.

[2] = test system: S. epidermidis MRSE 407/11; test: MIC, hospital methicillin-resistant strain; type: cell-based; conditions: Staphylococcus epidermidis
Experimental: as §1, §2

[3] = test system: S. epidermidis MRSE 405/11; test: MIC, hospital methicillin-resistant strain; type: cell-based; conditions: Staphylococcus epidermidis
Experimental: as §1, §2

[4] = test system: S. epidermidis MRSE 403/11; test: MIC, hospital methicillin-resistant strain; type: cell-based; conditions: Staphylococcus epidermidis
Experimental: as §1, §2

[5] = test system: S. epidermidis MRSE 412/11; test: MIC, hospital methicillin-resistant strain; type: cell-based; conditions: Staphylococcus epidermidis
Experimental: as §1, §2

[6] = test system: S. epidermidis MRSE 411/11; test: MIC, hospital methicillin-resistant strain; type: cell-based; conditions: Staphylococcus epidermidis
Experimental: as §1, §2

[7] = test system: S. epidermidis MRSE 406/11; test: MIC, hospital methicillin-resistant strain; type: cell-based; conditions: Staphylococcus epidermidis
Experimental: as §1, §2

[8] = test system: S. epidermidis MRSE 413/11; test: MIC, hospital methicillin-resistant strain; type: cell-based; conditions: Staphylococcus epidermidis
Experimental: as §1, §2

[9] = test system: S. epidermidis MRSE 404/11; test: MIC, hospital methicillin-resistant strain; type: cell-based; conditions: Staphylococcus epidermidis
Experimental: as §1, §2

[10] = test system: S. epidermidis MRSE 422/11; test: MIC, hospital methicillin-resistant strain; type: cell-based; conditions: Staphylococcus epidermidis
Experimental: as §1, §2

[11] = test system: S. aureus NCTC 4163; test: MIC, twofold serial microdilution; type: cell-based; conditions: Staphylococcus aureus, NCTC4163; standard strain, 18 h, 35 °C
Experimental: as §1, §2

[12] = test system: S. aureus ATCC 6538; test: MIC, twofold serial microdilution; type: cell-based; conditions: Staphylococcus aureus, ATCC6538; standard strain, 18 h, 35 °C
Experimental: as §1, §2

[13] = test system: S. epidermidis ATCC 12228; test: MIC, twofold serial microdilution; type: cell-based; conditions: Staphylococcus epidermidis, ATCC12228; standard strain, 18 h, 35 °C
Experimental: as §1, §2

[14] = test system: M. luteus ATCC 10240; test: MIC, twofold serial microdilution; type: cell-based; conditions: Micrococcus luteus, ATCC10240; standard strain, 18 h, 35 °C
Experimental: as §1, §2

[15] = test system: S. aureus ATCC 29213; test: MIC, twofold serial microdilution; type: cell-based; conditions: Staphylococcus aureus, ATCC29213; standard strain, 18 h, 35 °C
Experimental: as §1, §2

[16] = test system: B. subtilis ATCC 6633; test: MIC, twofold serial microdilution; type: cell-based; conditions: Bacillus subtilis, ATCC6633; standard strain, 18 h, 35 °C
Experimental: as §1, §2

[17] = test system: B. cereus ATCC 11778; test: MIC, twofold serial microdilution; type: cell-based; conditions: Bacillus cereus, ATCC11778; standard strain, 18 h, 35 °C
Experimental: as §1, §2

[18] = test system: S. epidermidis ATCC 35984; test: MIC, twofold serial microdilution; type: cell-based; conditions: Staphylococcus epidermidis, ATCC35984; standard strain, 18 h, 35 °C
Experimental: as §1, §2

[19] = test system: M. luteus ATCC 9341; test: MIC, twofold serial microdilution; type: cell-based; conditions: Micrococcus luteus, ATCC9341; standard strain, 18 h, 35 °C
Experimental: as §1, §2

[20] = test system: S. aureus ATCC 25923; test: MIC, twofold serial microdilution; type: cell-based; conditions: Staphylococcus aureus, ATCC25923; standard strain, 18 h, 35 °C
Experimental: as §1, §2

[21] = test system: E. faecalis ATCC 29212; test: MIC, twofold serial microdilution; type: cell-based; conditions: Enterococcus faecalis, ATCC29212; standard strain, 18 h, 35 °C
Experimental: as §1, §2

[22] = test system: HIV-1 IIIB; test: Anti-HIV-1 activity: protection of MT-4 cells from virus-induced cytopathogenicity (MTT); type: cell-based, Human Immunodeficiency Virus type-1; conditions: Human immunodeficiency virus 1, IIIB, MT4, 96 h; 50% protection of MT-4 cells from HIV-1 induced cytopathogenicity, MTT, 4-day incubation; read-out: HIV-1IIIB EC50
Source text: (§3) Cell line supporting the multiplication of Human Immunodeficiency Virus type-1 (HIV-1) was the CD4+ human T-cells, derived from human hematological tumors, containing an integrated HTLV-1 genome (MT-4). Cells were purchased from American Type Culture Collection (ATCC). Human Immunodeficiency Virus type-1 (HIV-1) IIIB laboratory strain was obtained from the supernatant of the persistently infected H9/IIIB cells (NIH 1983).
The activity of compounds against HIV-1 was based on inhibition of virus-induced cytopathogenicity in MT-4 cell acutely infected with a multiplicity of infection (m.o.i.) of 0.01. Briefly, 50 μL of RPMI containing 1 × 10^4 MT-4 cells were added to each well of flat-bottom microtiter trays, containing 50 μL of RPMI without or with serial dilutions of test compounds. Then, 20 μL of a HIV-1 suspension containing 100 CCID50 were added. After a 4-day incubation at 37 °C, cell viability was determined by the MTT method.

[23] = test system: staphylococci; test: MIC against staphylococci; type: cell-based; conditions: moderate activity
Experimental: as §1, §2

[24] = Cytotoxicity against mock-infected MT-4 cells (MTT); type: cell-based, human; conditions: human, concentration reducing viability of mock-infected MT-4 cells by 50%
Experimental: as §3
Exponentially growing MT-4 cells were seeded at an initial density of 1 × 10^5 cells/mL in 96-well plates in RPMI-1640 medium, supplemented with 10% fetal bovine serum (FBS), 100 units/mL penicillin G and 100 μg/mL streptomycin. Cell cultures were then incubated at 37 °C in a humidified, 5% CO2 atmosphere, in the absence or presence of serial dilutions of tested compounds. Cell viability was determined after 96 h at 37 °C by the 3-(4,5-dimethylthiazol-2-yl)-2,5-diphenyl-tetrazolium bromide (MTT) method.

| SMILES | MIC [1] | MIC [2] | MIC [3] | MIC [4] | MIC [5] | MIC [6] | MIC [7] | MIC [8] | MIC [9] | MIC [10] | MIC [11] | MIC [12] | MIC [13] | MIC [14] | MIC [15] | MIC [16] | MIC [17] | MIC [18] | MIC [19] | MIC [20] | other results |
| --- | --- | --- | --- | --- | --- | --- | --- | --- | --- | --- | --- | --- | --- | --- | --- | --- | --- | --- | --- | --- | --- |
| C=C(C)CNC(=S)Nc1ccc(Cl)c([N+](=O)[O-])c1 [Compound 27, 1-(4-chloro-3-nitrophenyl)-3-(2-methylprop-2-en-1-yl)thiourea] | 32 µg/mL (≈ 112 µM) | 32 µg/mL (≈ 112 µM) | 32 µg/mL (≈ 112 µM) | 32 µg/mL (≈ 112 µM) | 64 µg/mL (≈ 224 µM) | 32 µg/mL (≈ 112 µM) | 32 µg/mL (≈ 112 µM) | 32 µg/mL (≈ 112 µM) | 32 µg/mL (≈ 112 µM) | 64 µg/mL (≈ 224 µM) | 16 µg/mL (≈ 56 µM) | 16 µg/mL (≈ 56 µM) | 16 µg/mL (≈ 56 µM) | 32 µg/mL (≈ 112 µM) | 16 µg/mL (≈ 56 µM) | 16 µg/mL (≈ 56 µM) | 8 µg/mL (≈ 28 µM) | 16 µg/mL (≈ 56 µM) | 16 µg/mL (≈ 56 µM) | 16 µg/mL (≈ 56 µM) | MIC [21]: 64 µg/mL (≈ 224 µM); melting point: 96 to 98 °C; EC50 [22]: > 15.5 µM; MIC range towards staphylococci [23]: 8 to 16 µg/mL; CC50 at 96 h [24]: 15.5 µM |
| CSCCCNC(=S)Nc1ccc(Cl)c([N+](=O)[O-])c1 [Compound 29, 1-(4-chloro-3-nitrophenyl)-3-[3-(methylsulfanyl)propyl]thiourea] | 32 µg/mL (≈ 100 µM) | 32 µg/mL (≈ 100 µM) | 32 µg/mL (≈ 100 µM) | 32 µg/mL (≈ 100 µM) | 32 µg/mL (≈ 100 µM) | 32 µg/mL (≈ 100 µM) | 32 µg/mL (≈ 100 µM) | 32 µg/mL (≈ 100 µM) | 32 µg/mL (≈ 100 µM) | 32 µg/mL (≈ 100 µM) | 16 µg/mL (≈ 50 µM) | 16 µg/mL (≈ 50 µM) | 16 µg/mL (≈ 50 µM) | 32 µg/mL (≈ 100 µM) | 16 µg/mL (≈ 50 µM) | 16 µg/mL (≈ 50 µM) | 8 µg/mL (≈ 25 µM) | 16 µg/mL (≈ 50 µM) | 16 µg/mL (≈ 50 µM) | 16 µg/mL (≈ 50 µM) | MIC [21]: 64 µg/mL (≈ 200 µM); melting point: 102 to 103.5 °C; EC50 [22]: > 33.7 µM; MIC range towards staphylococci [23]: 8 to 16 µg/mL; CC50 at 96 h [24]: 33.7 µM |
| O=[N+]([O-])c1cc(NC(=S)NCc2ccco2)ccc1Cl [Compound 30, 1-(4-chloro-3-nitrophenyl)-3-(furan-2-ylmethyl)thiourea] | 32 µg/mL (≈ 103 µM) | 32 µg/mL (≈ 103 µM) | 32 µg/mL (≈ 103 µM) | 32 µg/mL (≈ 103 µM) | 32 µg/mL (≈ 103 µM) | 32 µg/mL (≈ 103 µM) | 64 µg/mL (≈ 205 µM) | 32 µg/mL (≈ 103 µM) | 32 µg/mL (≈ 103 µM) | 32 µg/mL (≈ 103 µM) | 16 µg/mL (≈ 51.3 µM) | 16 µg/mL (≈ 51.3 µM) | 32 µg/mL (≈ 103 µM) | 16 µg/mL (≈ 51.3 µM) | 16 µg/mL (≈ 51.3 µM) | 16 µg/mL (≈ 51.3 µM) | 16 µg/mL (≈ 51.3 µM) | 32 µg/mL (≈ 103 µM) | 16 µg/mL (≈ 51.3 µM) | 8 µg/mL (≈ 25.7 µM) | MIC [21]: 32 µg/mL (≈ 103 µM); melting point: 144 to 146 °C; EC50 [22]: > 25.6 µM; MIC range towards staphylococci [23]: 8 to 16 µg/mL; CC50 at 96 h [24]: 25.6 µM |
